Reference: ChEMBL document CHEMBL5537113, “Discovery of 1,2-diaryl-3-oxopyrazolidin-4-carboxamides as a new class of MurA enzyme inhibitors and characterization of their antibacterial activity” (Eur J Med Chem, 2023)

Experiments:
Clostridioides difficile [1] = test: Antibacterial activity against Clostridioides difficile ATCC BAA1870 assessed as reduction in microbial growth incubated for 48 hrs by broth microdilution method; format: functional
Clostridioides difficile [2] = test: Selectivity ratio of MBC for antibacterial activity against Clostridioides difficile NR-32904 to MIC for antibacterial activity against Clostridioides difficile NR-32904; format: functional
Clostridioides difficile [3] = test: Selectivity ratio of MBC for antibacterial activity against Clostridioides difficile ATCC 43255 to MIC for antibacterial activity against Clostridioides difficile […]; format: functional
Enterococcus faecalis = test: Antibacterial activity against Enterococcus faecalis ATCC 51299 assessed as reduction in microbial growth by CLSI based broth microdilution method; format: functional
Clostridioides difficile [4] = test: Antibacterial activity against Clostridioides difficile NR-49283 assessed as reduction in microbial growth incubated for 48 hrs by broth microdilution method; format: functional
Bacteroides fragilis [5] = test: Antibacterial activity against Bacteroides fragilis HM 719 assessed as reduction in microbial growth incubated for 48 hrs by broth microdilution method; format: functional
Escherichia coli = test: Antibacterial activity against Escherichia coli harboring tolC deletion mutant assessed as reduction in microbial growth incubated for 16 hrs by serial dilution method; format: functional
Clostridioides difficile [6] = test: Antibacterial activity against Clostridioides difficile NR-32889 assessed as reduction in microbial growth incubated for 48 hrs by broth microdilution method; format: functional
Clostridioides difficile [7] = test: Antibacterial activity against Clostridioides difficile NR-49294 assessed as reduction in microbial growth incubated for 48 hrs by broth microdilution method; format: functional
[8] = Stability of compound in LB broth medium at 10 uM incubated for 24 hrs at 37 degC by UHPLC-MS/MS analysis; format: physicochemical
Clostridioides difficile [9] = test: Bactericidal activity against Clostridioides difficile NR-32895 assessed as reduction in microbial growth by broth microdilution method; format: functional
[10] = molecular target: UDP-N-acetylglucosamine 1-carboxyvinyltransferase (Escherichia coli K-12) (UniProt P0A749); test: Inhibition of Escherichia coli K12 His-tagged MurA expressed in Escherichia coli BL21 cells at 50 uM using UNAG as substrate pre incubated for 15 mins followed by substrate addition and measured after 15 mins by microplate reader analysis relative to control; details: time 30.0 min
Staphylococcus aureus [11] = test: Antibacterial activity against methicillin resistant Staphylococcus aureus NRS119 assessed as reduction in microbial growth by CLSI based broth microdilution method; format: functional
Clostridioides difficile [12] = test: Antibacterial activity against Clostridioides difficile NR-32903 assessed as reduction in microbial growth incubated for 48 hrs by broth microdilution method; format: functional
[13] = molecular target: UDP-N-acetylglucosamine 1-carboxyvinyltransferase (Escherichia coli K-12, UniProt P0A749); test: Inhibition of Escherichia coli K12 His-tagged MurA expressed in Escherichia coli BL21 cells using UNAG as substrate pre incubated for 15 mins followed by substrate addition and measured after 15 mins by microplate reader analysis
Bifidobacterium longum = test: Antibacterial activity against Bifidobacterium longum HM 846 assessed as reduction in microbial growth incubated for 48 hrs by broth microdilution method; format: functional
Streptococcus pneumoniae = test: Antibacterial activity against Streptococcus pneumoniae ATCC 700677 assessed as reduction in microbial growth by CLSI based broth microdilution method; format: functional
Clostridioides difficile [14] = test: Bactericidal activity against Clostridioides difficile NR-49284 assessed as reduction in microbial growth by broth microdilution method; format: functional
Staphylococcus aureus [15] = test: Antibacterial activity against Staphylococcus aureus Newman D2C NCTC 10833 assessed as reduction in microbial growth incubated for 16 hrs by serial dilution method; format: functional
[16] = Stability of compound in Staphylococcus aureus Newman cell lysate at 10 uM incubated for 24 hrs at 37 degC by UHPLC-MS/MS analysis; format: ADME, subcellular
Clostridioides difficile [17] = test: Antibacterial activity against Clostridioides difficile NR-49288 assessed as reduction in microbial growth incubated for 48 hrs by broth microdilution method; format: functional
Bacteroides fragilis [18] = test: Antibacterial activity against Bacteroides fragilis HM 718 assessed as reduction in microbial growth incubated for 48 hrs by broth microdilution method; format: functional
Clostridioides difficile [19] = test: Antibacterial activity against Clostridioides difficile NR-49278 assessed as reduction in microbial growth incubated for 48 hrs by broth microdilution method; format: functional
Lactobacillus crispatus [20] = test: Antibacterial activity against Lactobacillus crispatus HM 103 assessed as reduction in microbial growth incubated for 48 hrs by broth microdilution method; format: functional
Bifidobacterium breve [21] = test: Antibacterial activity against Bifidobacterium breve HM 412 assessed as reduction in microbial growth incubated for 48 hrs by broth microdilution method; format: functional
Clostridioides difficile [22] = test: Bactericidal activity against Clostridioides difficile NR-49278 assessed as reduction in microbial growth by broth microdilution method; format: functional
Clostridioides difficile [23] = test: Antibacterial activity against Clostridioides difficile NR-49286 assessed as reduction in microbial growth incubated for 48 hrs by broth microdilution method; format: functional
Staphylococcus aureus [24] = test: Antibacterial activity against methicillin resistant Staphylococcus aureus USA300 assessed as reduction in microbial growth by CLSI based broth microdilution method; format: functional
Lactobacillus gasseri [25] = test: Antibacterial activity against Lactobacillus gasseri HM 403 assessed as reduction in microbial growth incubated for 48 hrs by broth microdilution method; format: functional
Lactobacillus crispatus [26] = test: Antibacterial activity against Lactobacillus crispatus HM 420 assessed as reduction in microbial growth incubated for 48 hrs by broth microdilution method; format: functional
Clostridioides difficile [27] = test: Antibacterial activity against Clostridioides difficile NR-49291 assessed as reduction in microbial growth incubated for 48 hrs by broth microdilution method; format: functional
Clostridioides difficile [28] = test: Antibacterial activity against Clostridioides difficile NR-49282 assessed as reduction in microbial growth incubated for 48 hrs by broth microdilution method; format: functional
Staphylococcus aureus [29] = test: Antibacterial activity against vancomycin resistant Staphylococcus aureus 10 assessed as reduction in microbial growth by CLSI based broth microdilution method; format: functional
Clostridioides difficile [30] = test: Antibacterial activity against Clostridioides difficile NR-49277 assessed as reduction in microbial growth incubated for 48 hrs by broth microdilution method; format: functional
Clostridioides difficile [31] = test: Antibacterial activity against Clostridioides difficile NR-49284 assessed as reduction in microbial growth incubated for 48 hrs by broth microdilution method; format: functional
Clostridioides difficile [32] = test: Antibacterial activity against Clostridioides difficile NR-49279 assessed as reduction in microbial growth incubated for 48 hrs by broth microdilution method; format: functional
Clostridioides difficile [33] = test: Selectivity ratio of MBC for antibacterial activity against Clostridioides difficile NR-49278 to MIC for antibacterial activity against Clostridioides difficile NR-49278; format: functional
[34] = tested on: Bifidobacterium angulatum; test: Antibacterial activity against Bifidobacterium angulatum HM 1189 assessed as reduction in microbial growth incubated for 48 hrs by broth microdilution method; format: functional
Bacteroides fragilis [35] = test: Antibacterial activity against Bacteroides fragilis HM 20 assessed as reduction in microbial growth incubated for 48 hrs by broth microdilution method; format: functional
Clostridioides difficile [36] = test: Bactericidal activity against Clostridioides difficile ATCC BAA1870 assessed as reduction in microbial growth by broth microdilution method; format: functional
Lactobacillus gasseri [37] = test: Antibacterial activity against Lactobacillus gasseri HM 407 assessed as reduction in microbial growth incubated for 48 hrs by broth microdilution method; format: functional
Clostridioides difficile [38] = test: Antibacterial activity against Clostridioides difficile NR-32895 assessed as reduction in microbial growth incubated for 48 hrs by broth microdilution method; format: functional
Bifidobacterium breve [39] = test: Antibacterial activity against Bifidobacterium breve HM1120 assessed as reduction in microbial growth incubated for 48 hrs by broth microdilution method; format: functional

Chain of UDP-N-acetylglucosamine 1-carboxyvinyltransferase (Escherichia coli K-12) (P0A749 whole entry): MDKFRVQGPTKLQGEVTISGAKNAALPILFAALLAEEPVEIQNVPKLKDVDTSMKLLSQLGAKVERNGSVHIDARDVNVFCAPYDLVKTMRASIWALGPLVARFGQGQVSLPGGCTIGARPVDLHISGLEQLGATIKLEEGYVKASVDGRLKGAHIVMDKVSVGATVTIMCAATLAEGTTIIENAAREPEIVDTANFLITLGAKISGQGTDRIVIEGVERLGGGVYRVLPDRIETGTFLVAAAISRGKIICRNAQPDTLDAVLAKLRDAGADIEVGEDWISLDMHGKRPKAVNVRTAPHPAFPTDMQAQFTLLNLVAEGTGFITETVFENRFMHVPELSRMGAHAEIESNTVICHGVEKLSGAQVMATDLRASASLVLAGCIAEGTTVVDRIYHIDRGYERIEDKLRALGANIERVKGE
Chain of UDP-N-acetylglucosamine 1-carboxyvinyltransferase (P0A749 whole entry): as above

SMILES: O=C(Nc1ncc([N+](=O)[O-])s1)C1CN(c2cccc(Cl)c2)N(c2cccc(Cl)c2)C1=O (stereo unspecified)
- MIC (Clostridioides difficile [1]): 0.25 µg/mL
- Ratio (Clostridioides difficile [2]): 1
- Ratio (Clostridioides difficile [3]): 1
- MIC (Enterococcus faecalis): > 64 µg/mL
- MIC (Clostridioides difficile [4]): 0.5 µg/mL
- MIC (Bacteroides fragilis [5]): 8 µg/mL
- MIC (Escherichia coli): > 40 µM
- MIC (Clostridioides difficile [6]): 0.5 µg/mL
- MIC (Clostridioides difficile [7]): 0.5 µg/mL
- Stability [8]: Stable
- MBC (Clostridioides difficile [9]): 1 µg/mL
- inhibition [10]: 67.6%
- MIC (Staphylococcus aureus [11]): 1 µg/mL
- MIC (Clostridioides difficile [12]): 0.5 µg/mL
- IC50 [13]: 9.8 µM
- MIC (Bifidobacterium longum): 16 µg/mL
- MIC (Streptococcus pneumoniae): 4 µg/mL
- MBC (Clostridioides difficile [14]): 0.5 µg/mL
- MIC (Staphylococcus aureus [15]): 10 µM
- Stability [16]: Stable
- MIC (Clostridioides difficile [17]): 0.25 µg/mL
- MIC (Bacteroides fragilis [18]): 8 µg/mL
- MIC (Clostridioides difficile [19]): 0.5 µg/mL
- MIC (Lactobacillus crispatus [20]): > 64 µg/mL
- MIC (Bifidobacterium breve [21]): 64 µg/mL
- MBC (Clostridioides difficile [22]): 0.5 µg/mL
- MIC (Clostridioides difficile [23]): 0.5 µg/mL
- MIC (Staphylococcus aureus [24]): 4 µg/mL
- MIC (Lactobacillus gasseri [25]): > 64 µg/mL
- MIC (Lactobacillus crispatus [26]): > 64 µg/mL
- MIC (Clostridioides difficile [27]): 1 µg/mL
- MIC (Clostridioides difficile [28]): 0.5 µg/mL
- MIC (Staphylococcus aureus [29]): 4 µg/mL
- MIC (Clostridioides difficile [30]): 0.5 µg/mL
- MIC (Clostridioides difficile [31]): 0.5 µg/mL
- MIC (Clostridioides difficile [32]): 0.25 µg/mL
- Ratio (Clostridioides difficile [33]): 1
- MIC [34]: 32 µg/mL
- MIC (Bacteroides fragilis [35]): 4 µg/mL
- MBC (Clostridioides difficile [36]): 0.25 µg/mL
- MIC (Lactobacillus gasseri [37]): > 64 µg/mL
- MIC (Clostridioides difficile [38]): 0.5 µg/mL
- MIC (Bifidobacterium breve [39]): 64 µg/mL

SMILES: O=C(Nc1ncc([N+](=O)[O-])s1)C1CN(c2ccc(Cl)cc2)N(c2ccc(Cl)cc2)C1=O (stereo unspecified)
- MIC (Clostridioides difficile [1]): 0.5 µg/mL
- Ratio (Clostridioides difficile [2]): 1
- Ratio (Clostridioides difficile [3]): 1
- MIC (Enterococcus faecalis): > 64 µg/mL
- MIC (Clostridioides difficile [4]): 0.5 µg/mL
- MIC (Bacteroides fragilis [5]): 4 µg/mL
- MIC (Escherichia coli): > 40 µM
- MIC (Clostridioides difficile [6]): 0.25 µg/mL
- MIC (Clostridioides difficile [7]): 0.5 µg/mL
- Stability [8]: Stable
- MBC (Clostridioides difficile [9]): 1 µg/mL
- inhibition [10]: 70.2%
- MIC (Staphylococcus aureus [11]): 64 µg/mL
- MIC (Clostridioides difficile [12]): 0.5 µg/mL
- IC50 [13]: 10.2 µM
- MIC (Bifidobacterium longum): 32 µg/mL
- MIC (Streptococcus pneumoniae): 64 µg/mL
- MBC (Clostridioides difficile [14]): 0.5 µg/mL
- MIC (Staphylococcus aureus [15]): 10 µM
- Stability [16]: Stable
- MIC (Clostridioides difficile [17]): 0.25 µg/mL
- MIC (Bacteroides fragilis [18]): 8 µg/mL
- MIC (Clostridioides difficile [19]): 0.5 µg/mL
- MIC (Lactobacillus crispatus [20]): > 64 µg/mL
- MIC (Bifidobacterium breve [21]): > 64 µg/mL
- MBC (Clostridioides difficile [22]): 0.5 µg/mL
- MIC (Clostridioides difficile [23]): 0.5 µg/mL
- MIC (Staphylococcus aureus [24]): 32 µg/mL
- MIC (Lactobacillus gasseri [25]): > 64 µg/mL
- MIC (Lactobacillus crispatus [26]): > 64 µg/mL
- MIC (Clostridioides difficile [27]): 1 µg/mL
- MIC (Clostridioides difficile [28]): 0.5 µg/mL
- MIC (Staphylococcus aureus [29]): > 64 µg/mL
- MIC (Clostridioides difficile [30]): 1 µg/mL
- MIC (Clostridioides difficile [31]): 0.5 µg/mL
- MIC (Clostridioides difficile [32]): 0.5 µg/mL
- Ratio (Clostridioides difficile [33]): 1
- MIC [34]: > 64 µg/mL
- MIC (Bacteroides fragilis [35]): 8 µg/mL
- MBC (Clostridioides difficile [36]): 0.5 µg/mL
- MIC (Lactobacillus gasseri [37]): > 64 µg/mL
- MIC (Clostridioides difficile [38]): 1 µg/mL
- MIC (Bifidobacterium breve [39]): > 64 µg/mL
